Measurements as given in PubChem BioAssay (NCI).
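Tested at 5 concentrations; 48 h exposure; 96-well plates; endpoints linearly interpolated, else capped at highest concentration. Definition used: TGI = concentration required for complete inhibition of growth.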

How the values were obtained:
Experiment in all cases: NCI anticancer screen, dose series, 48 h
A549 NSCLC = system: A549 NSCLC
OVCAR-8 ovarian = system: OVCAR-8 ovarian
MOLT-4 leukemia = system: MOLT-4 leukemia
PC-3 prostate = system: PC-3 prostate
SNB-75 CNS = system: SNB-75 CNS
MDA-N = system: MDA-N
NCI-H23 lung = system: NCI-H23 lung
SF-268 CNS = system: SF-268 CNS
HCT-15 colon = system: HCT-15 colon
MALME-3M melanoma = system: MALME-3M melanoma
HS 578T breast = system: HS 578T breast
SN12C renal = system: SN12C renal
SW-620 colon = system: SW-620 colon
HOP-62 NSCLC = system: HOP-62 NSCLC
OVCAR-5 ovarian = system: OVCAR-5 ovarian
TK-10 renal = system: TK-10 renal
T-47D breast = system: T-47D breast
HT29 colon = system: HT29 colon
LOX IMVI melanoma = system: LOX IMVI melanoma
UO-31 renal = system: UO-31 renal
HCC-2998 colon = system: HCC-2998 colon
M14 melanoma = system: M14 melanoma
MDA-MB-231 breast = system: MDA-MB-231 breast
HOP-92 NSCLC = system: HOP-92 NSCLC
SF-295 CNS = system: SF-295 CNS
OVCAR-3 ovarian = system: OVCAR-3 ovarian
OVCAR-4 ovarian = system: OVCAR-4 ovarian
CCRF-CEM leukemia = system: CCRF-CEM leukemia
K-562 leukemia = system: K-562 leukemia
SNB-19 CNS = system: SNB-19 CNS
NCI-H226 lung = system: NCI-H226 lung
COLO 205 colon = system: COLO 205 colon
NCI-H522 lung = system: NCI-H522 lung
CAKI-1 renal = system: CAKI-1 renal
SK-MEL-5 melanoma = system: SK-MEL-5 melanoma
SK-OV-3 ovarian = system: SK-OV-3 ovarian
MCF7 breast = system: MCF7 breast
SR leukemia = system: SR leukemia
ACHN renal = system: ACHN renal
UACC-62 melanoma = system: UACC-62 melanoma
786-0 renal = system: 786-0 renal
HCT-116 colon = system: HCT-116 colon
RXF 393 renal = system: RXF 393 renal
SK-MEL-28 melanoma = system: SK-MEL-28 melanoma
U251 CNS = system: U251 CNS
NCI/ADR-RES ovarian = system: NCI/ADR-RES ovarian
KM12 colon = system: KM12 colon
IGROV1 ovarian = system: IGROV1 ovarian
DU-145 prostate = system: DU-145 prostate
SF-539 CNS = system: SF-539 CNS
MDA-MB-435 = system: MDA-MB-435
RPMI-8226 leukemia = system: RPMI-8226 leukemia
NCI-H460 lung = system: NCI-H460 lung
UACC-257 melanoma = system: UACC-257 melanoma
EKVX NSCLC = system: EKVX NSCLC
SK-MEL-2 melanoma = system: SK-MEL-2 melanoma
A498 renal = system: A498 renal
BT-549 breast = system: BT-549 breast

Measured: TGI

Clc1cc(Cl)ncn1
not listed: UACC-257 melanoma | EKVX NSCLC | SK-MEL-2 melanoma | A498 renal | BT-549 breast
> 100 µM: all other assays above

Cc1ncc(COP(=O)(O)O)c(/C=C2\SC(=S)NC2=O)c1O
not listed: HS 578T breast | CCRF-CEM leukemia
> 100 µM: all other assays above
